{"source": "patent US5792784A", "about": "“Coupling product obtained from histamine and an amino acid” (Babizhayev; Marc, priority 1993, dated 1998)", "key": {"[1]": {"test": "Inhibition of linoleic acid peroxidation (Fe/ascorbic acid; TBA/MDA)", "format": "biochemical", "conditions": "25 mM (mixture: 25 mM each), linoleic acid 0.25 mg/ml; for MDA per mg of linoleic acid: control 7.95", "method": "oxidation substrate: linoleic acid (0.25 mg/ml), free radicals generating system: Fe/ascorbic acid detection: thiobarbituric acid (TBA)/malondialdehyde (MDA)"}, "[2]": {"test": "Inhibition of phosphatidylcholine liposome peroxidation (Fe/ascorbic acid; TBA/MDA)", "conditions": "for MDA per mg of phospholipids: control 4.4", "quoted_text": "oxidation substrate: phosphatidylcholine liposomes\nfree radicals generating system : Fe/ascorbic acid detection: thiobarbituric acid (TBA)/malondialdehyde (MDA)"}, "[3]": {"test": "Inhibition of deoxyribose oxidation (superoxide from xanthine oxidase/hypoxanthine; TBA/MDA detection)", "format": "biochemical", "conditions": "10 mM", "text": "Several in vitro tests have been carried out in order to reveal the evoked different antioxidant properties.\nExperimental procedure described by J. M. C. Gutteridge in Biochemistry Journal, vol. 224 (1984), p. 761-767: oxidation substrate: deoxyribose\nSuperoxide anions production system: xanthine oxidase/hypoxanthine detection: thiobarbituric acid/malondialdehyde (MDA)"}, "[4]": {"test": "\"Peroxidase\" type activity on liposome model: reduction of phosphatidylcholine hydroperoxides (PC-OOH)", "format": "biochemical", "method": "The \"peroxidase\" type activity also has been evaluated on a \"liposome\" model. The phosphatidylcholine hydroperoxides (PC-OOH) are prepared according to a similar procedure to the one already described for the linoleic acid monoperoxide.\nThe peroxide species reduction is followed by dosing the remaining peroxides according to the method laid down by Hicks M and Gebicki J. M.--Anal. Biochem, vol 99, (1979), p. 249-253."}, "[5]": {"system": "gingival and buccal mucosa", "test": "Repairing activity on the mucosa in stomatitis gingivitis", "format": "in vivo, patients", "conditions": "aqueous gel 0.28%", "text": "We have been able to study this action on stomatitis gingivitis of various origin (dental prothesis badly adapted, the taking by mistake of a corrosive liquid, and colbaltotherapy of the oropharyngeal aera.\nIn all the cases, the causes of deterioration of the gingival and buccal mucosa have been stopped. Over and above the classical treatments that were adapted and systematically given, was given to 50% of the patients, an aqueous orange flavour gel containing 0.28% of N-acetyl-3-phenyl-3-aminopropionyl-histamine."}, "[6]": {"test": "Protection of micro seaweed oil against oxidation (malondialdehyde dosage, one month)", "conditions": "20 mmol per L oil", "text": "The pseudo-dipeptides products also can be used to protect cosmetic oils easily oxidizable, rich in unsaturated fatty acids formulated in cosmetic or dietetic.\nIt has been necessary to add 15 to 25 mmol of pseudo-dipeptides products of the invention per liter of oil according to the following formulation: […]\n20 mmol of acetylated b-alanyl-histamine oil extracted from micro seaweed cultured in sea water very rich in unsaturated fatty acids, including EPA qs for 1L.\nWe have compared the ageing of this protected oil to the non-protected oil at the end of a month by the malondialdehyde dosage."}, "[7]": {"system": "cataract", "test": "Cataract patients: modification of the visual acuity at the end of 24 months", "format": "in vivo", "conditions": "1% in isotonic saline, only one daily local dose", "text": "This example concerns the utilization of the β-alanyl-histamine to treat patients affected by cataract.\nThe study has been designed for a prospective evaluation of the modifications of the lens opacity in patients effected by cataract. All the patients have undergone an initial ophtalmic examination. It involved the making of the medical historical record of the patient, a measurement of the visual acuity at a maximum correction, direct or indirect ophtalmoscopies, an evaluation of the opacities with the slit lamp, a clinical grading of the lens after maximal mydriasis, a classification according to the cataract type, and lens pictures by retroillumination. Moreover, samples of blood have been taken at the beginning, then in follow-up for chemical analysis.\nThe general view has allowed to establish the initial state of patients before the treatment (definition of \"base line\").\nFollow-up of ophtalmic examinations were carried out every two weeks for two months, then every month. They included maximum visual acuity after correction, direct or indirect ophtalmoscopies, a slit lamp examination, and after a maximum dilation of the pupil (excluding patients with primary open-angle glaucoma), a clinical lens grading, a classification of the cataract. Pictures also have been taken on lens observed by retroillumination or with the slit lamp.\nIn this study, differents groups have been determined, to be seen:\nA group reference 1, with non-treated patients (5 patients, 7 eyes) […]\nA group 3, has been submitted to the same treatment than the group 2, stimulated by an \"attack type of treatment\" during the first two weeks: 2 subcon-junctival junctival injections twice a week of 0.10 to 0.15 ml of the saline defined for the group 2 (3 patients, 4 eyes).\nA group 4, which was given a local dose by way of an eye drop of isotonic saline twice a day (5 patients 7 eyes), the group 4 being like the group 1, a reference group.\nFollowing the protocol described above, we determine the values of the optic density of the lens according to its opacity as well as the visual acuity, and the whole for 24 months. Considering these two parameters, we obtain tables giving results concerning the modification of the visual acuity at the end of 24 months in Tables 1 and 2, and the results concerning the modification of the visual opacity at the end of 24 months in Tables 3 and 4."}, "[8]": {"test": "Tests with peroxidized compounds: reducing behaviour", "format": "biochemical"}, "[9]": {"test": "\"Peroxidase\" activity: reduction of 13-monoperoxide of linoleic acid (L-OOH)", "format": "biochemical", "conditions": "10 mM; 13-monoperoxide linoleic acid 0.5 mM; control 36.7", "method": "Lipid peroxides evolution is monitored with the help of 3 methods:\n1°) spectrophotometric measure at 233 nm\n(O. S. Privett, C. Nickell, W. O. Lundberg, and P. D. Bayer, dans J.Am.Oil Chem. Soc, Vol 32 (1955), P.505-511\n2°) Iodometric dosage: M.Hicks' and J. M. Gebicki's method, Analytical Biochemistry, vol 99 (1979), p 249-253.\n3°) Chromatography on silica gel plate (hexane/ether/acetic acid 8/7/0.1).\n(a) 13-monoperoxide linoleic acid 0.5 mM without reducing agent (preparation according to H. W. Gardner's method Lipids, Vol.10 (1975), p. 248-252)."}, "[10]": {"system": "gastric ulcer", "conditions": "rats with limited food-intake-time; cited from earlier work"}, "[11]": {"system": "murine splenocytes", "test": "Immunostimulating activity in vitro on murine splenocytes (tritiated thymidine incorporation)", "format": "cell-based", "conditions": "average of three measures", "text": "The procedure is extracted from: J. Kunert-Radek, H. Stepien, K. Lyson and M. Pawlikowski--\"Effects of calcium channel modulators on the proliferation of mouse spleen lymphocytes in vitro\"--Agents and Actions, vol. 29, Nos 3-4 (1990), p. 254-258.\nThe cell proliferation is followed by the measurement of the extent of incorporation of tritriated thymidine in the cells, expressed in numbers of desintegrations per mn, deducted from the background.\nThe results obtained with an immunostimulator of reference, concanavaline A, are given as a comparison.\nThe immunostimulating effect is expressed by an Index of Stimulation (IS) [formula]\nThe given values are corresponding to the average of three measures."}}}
{"molecule": "NCCc1c[nH]cn1", "note": "[Histamine, histamine]", "values": [{"measurement": "% inhibition", "setting": "[1]", "value": -32, "unit": "%"}, {"measurement": "MDA per mg of linoleic acid", "setting": "[1]", "value": "10.15 mol MDA per mg of linoleic aci"}, {"measurement": "% inhibition", "setting": "[2]; 1 M (so in the source)", "value": -45, "unit": "%"}, {"measurement": "MDA per mg of phospholipids", "setting": "[2]; 1 M (so in the source)", "value": "6.4 mol MDA per mg of phospholipid"}, {"measurement": "% inhibition", "setting": "[2]; 10 M (so in the source)", "value": -63, "unit": "%"}, {"measurement": "MDA per mg of phospholipids", "setting": "[2]; 10 M (so in the source)", "value": "6.8 mol MDA per mg of phospholipid"}]}
{"molecule": "N[C@@H](Cc1c[nH]cn1)C(=O)O", "note": "[Histidine]", "values": [{"measurement": "% inhibition", "setting": "[2]; 1 mM", "value": -48, "unit": "%"}, {"measurement": "MDA per mg of phospholipids", "setting": "[2]; 1 mM", "value": "6.6 mol MDA per mg of phospholipid"}]}
{"molecule": "c1c[nH]cn1", "note": "[Imidazole]", "values": [{"measurement": "% inhibition", "setting": "[1]", "value": 11, "unit": "%"}, {"measurement": "MDA per mg of linoleic acid", "setting": "[1]", "value": "6.95 mol MDA per mg of linoleic aci"}]}
{"molecule": "NCCC(=O)N[C@@H](Cc1c[nH]cn1)C(=O)O", "note": "[L-carnosine, β-alanyl-histidine, reference compound]", "values": [{"measurement": "% inhibition", "setting": "[1]", "value": 59, "unit": "%"}, {"measurement": "MDA per mg of linoleic acid", "setting": "[1]", "value": "3.24 mol MDA per mg of linoleic aci"}, {"measurement": "MDA per mg of phospholipids", "setting": "[2]; 10 mM", "value": "2.0 mol MDA per mg of phospholipid"}, {"measurement": "% inhibition of deoxyribose oxidation", "setting": "[3]", "value": 37, "unit": "%"}, {"measurement": "number of moles of PC-OOH reduced/initial number of moles of PC/hour", "setting": "[4]; 10 mM", "value": "3.16 × 10^-3 moles of PC-OOH reduced/initia"}, {"measurement": "number of moles of PC-OOH reduced/initial number of moles of PC/hour", "setting": "[4]; 25 mM", "value": "3.65 × 10^-3 moles of PC-OOH reduced/initia"}]}
{"molecule": "CC(=O)NC(CC(=O)NCCc1c[nH]cn1)c1ccccc1", "note": "(stereo not shown) [N-acetyl-3-phenyl-3-aminopropionyl-histamine]", "values": [{"measurement": "tolerance", "setting": "[5]", "value": "excellent tolerance"}]}
{"molecule": "CC(=O)NCCC(=O)NCCc1c[nH]cn1", "note": "[N-acetyl-β-alanyl-histamine]", "values": [{"measurement": "protection against oxidation (malondialdehyde dosage)", "setting": "[6]", "value": "proves well the activity of the acetylated-β-alanyl-histamine in the protection against oxidation"}, {"measurement": "results of eye drop treatment versus those previously obtained", "setting": "[7]", "value": "identical to the ones previously obtained"}]}
{"molecule": "[BH4-].[Na+]", "note": "[NaBH4, sodium borohydride, reference compound]", "values": [{"measurement": "reducing behaviour towards peroxidized compounds", "setting": "[8]", "value": "inhibits in an identical way the reaction of degradation"}, {"measurement": "\"peroxidase\" activity", "setting": "[9]", "value": "312.5 mol of L-OOH reduced/hour"}]}
{"molecule": "NCCC(=O)O", "note": "[β-alanine]", "values": [{"measurement": "% inhibition", "setting": "[1]", "value": 0, "unit": "%"}, {"measurement": "MDA per mg of linoleic acid", "setting": "[1]", "value": "7.91 mol MDA per mg of linoleic aci"}]}
{"molecule": "N- (3-aminopropionyl)--L-histidinato zinc [Z-103]", "values": [{"measurement": "gastric ulcer treatment", "setting": "[10]", "value": "good results"}]}
{"molecule": "concanavaline A [reference compound]", "values": [{"measurement": "Index of Stimulation (IS)", "setting": "[11]; 2.5 μg/ml", "value": 4.8}, {"measurement": "Index of Stimulation (IS)", "setting": "[11]; 5 μg/ml", "value": 25.1}, {"measurement": "Index of Stimulation (IS)", "setting": "[11]; 10 μg/ml", "value": 20.5}, {"measurement": "Index of Stimulation (IS)", "setting": "[11]; 25 μg/ml", "value": 12.6}]}
